Columns and labels:
MDA-MB-231 = assay: Antiproliferative activity against triple-negative human MDA-MB-231 cells overexpressing c-Met assessed as inhibition of cell proliferation measured after 72 hrs by MTT assay; assay type: functional, cell-based; conditions: MDA-MB-231, 72 h
MDA-MB-468 = assay: Antiproliferative activity against triple-negative human MDA-MB-468 cells overexpressing c-Met assessed as inhibition of cell proliferation measured after 72 hrs by MTT assay; assay type: functional, cell-based; conditions: MDA-MB-468, 72 h
[1] = target: T1, Hepatocyte growth factor receptor (Homo sapiens, UniProt P08581); assay: Inhibition of c-MET kinase domain (unknown origin) using Tyr6 peptide as substrate measured after 1 hr in presence of ATP by Z'-lyte kinase assay
T1 sequence (P08581 whole entry, the tested form may be a part): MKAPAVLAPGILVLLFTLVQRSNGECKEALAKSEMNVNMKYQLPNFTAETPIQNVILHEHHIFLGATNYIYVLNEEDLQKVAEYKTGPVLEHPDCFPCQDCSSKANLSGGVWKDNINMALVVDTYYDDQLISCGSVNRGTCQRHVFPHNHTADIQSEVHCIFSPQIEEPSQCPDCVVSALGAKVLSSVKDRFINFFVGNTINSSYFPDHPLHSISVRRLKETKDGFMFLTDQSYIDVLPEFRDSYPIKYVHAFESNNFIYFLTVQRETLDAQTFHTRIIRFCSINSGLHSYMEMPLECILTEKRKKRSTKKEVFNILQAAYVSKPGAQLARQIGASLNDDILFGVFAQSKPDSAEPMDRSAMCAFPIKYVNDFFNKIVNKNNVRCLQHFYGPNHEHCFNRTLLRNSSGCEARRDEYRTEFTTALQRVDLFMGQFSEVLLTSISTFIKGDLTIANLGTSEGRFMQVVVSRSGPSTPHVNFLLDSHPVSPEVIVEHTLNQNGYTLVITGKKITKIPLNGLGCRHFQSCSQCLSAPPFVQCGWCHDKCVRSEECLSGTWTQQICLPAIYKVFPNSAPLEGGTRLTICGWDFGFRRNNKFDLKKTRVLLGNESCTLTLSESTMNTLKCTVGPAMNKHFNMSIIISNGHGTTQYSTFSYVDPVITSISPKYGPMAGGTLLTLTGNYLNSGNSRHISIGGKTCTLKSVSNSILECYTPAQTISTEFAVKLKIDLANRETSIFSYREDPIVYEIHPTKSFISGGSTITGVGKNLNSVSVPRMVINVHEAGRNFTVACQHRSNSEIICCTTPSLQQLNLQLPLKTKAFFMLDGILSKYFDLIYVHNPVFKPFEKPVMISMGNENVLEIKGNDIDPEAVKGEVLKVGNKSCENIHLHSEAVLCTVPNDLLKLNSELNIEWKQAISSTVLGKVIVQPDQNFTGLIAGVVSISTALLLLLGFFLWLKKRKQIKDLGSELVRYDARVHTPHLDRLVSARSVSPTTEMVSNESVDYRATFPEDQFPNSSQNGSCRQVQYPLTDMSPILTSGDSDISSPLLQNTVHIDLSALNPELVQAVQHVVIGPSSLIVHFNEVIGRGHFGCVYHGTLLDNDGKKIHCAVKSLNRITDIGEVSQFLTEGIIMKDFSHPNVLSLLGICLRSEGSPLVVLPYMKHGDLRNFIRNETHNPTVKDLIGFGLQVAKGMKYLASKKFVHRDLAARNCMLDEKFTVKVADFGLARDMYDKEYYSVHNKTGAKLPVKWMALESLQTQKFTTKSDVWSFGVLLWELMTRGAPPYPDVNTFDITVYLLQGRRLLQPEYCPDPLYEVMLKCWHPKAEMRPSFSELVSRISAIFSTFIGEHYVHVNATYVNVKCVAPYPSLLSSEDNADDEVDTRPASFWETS

[2] = target: T1, Hepatocyte growth factor receptor; assay: Inhibition of c-MET in human MDA-MB-231 cells assessed as downregulation of activated phosphorylated c-MET level measured after 72 hrs in presence of HGF by immunoblot analysis; assay type: cell-based; conditions: dose 25-50 µM

CCc1ccc(NC(=O)O[C@H]2/C=C(\C)CC/C=C(\C)CC[C@@H](C(C)C)/C=C/[C@@](C)(O)C2)cc1 gave an IC50 (MDA-MB-231) of 26.3 µM and an IC50 (MDA-MB-468) of 25.7 µM.

Work on C/C1=C\[C@H](OC(=O)Nc2ccc(Cl)c(Cl)c2)C[C@](C)(O)/C=C/[C@H](C(C)C)CC/C(C)=C/CC1 yielded an IC50 (MDA-MB-231) of 8.5 µM and an IC50 (MDA-MB-468) of 10.7 µM.

C/C1=C\[C@H](OC(=O)Nc2cccc3ccccc23)C[C@](C)(O)/C=C/[C@H](C(C)C)CC/C(C)=C/CC1 was tested, and the IC50 (MDA-MB-231) was > 50 µM and the IC50 (MDA-MB-468) was > 50 µM.

In the case of C/C1=C\[C@H](OC(=O)NC2CCCCC2)C[C@](C)(O)/C=C/[C@H](C(C)C)CC/C(C)=C/CC1, the IC50 (MDA-MB-231) is reported as 38.2 µM and the IC50 (MDA-MB-468) is reported as 39.6 µM.

C/C1=C\[C@H](OC(=O)Nc2cccc(F)c2)C[C@](C)(O)/C=C/[C@H](C(C)C)CC/C(C)=C/CC1 showed an IC50 (MDA-MB-231) of 16.2 µM and an IC50 (MDA-MB-468) of 19.5 µM.

Molecule C/C1=C\[C@H](OC(=O)Nc2ccc(C(F)(F)F)cc2)C[C@](C)(O)/C=C/[C@H](C(C)C)CC/C(C)=C/CC1 has an IC50 (MDA-MB-231) of 8.9 µM and an IC50 (MDA-MB-468) of 11.6 µM.

C/C1=C\[C@H](OC(=O)Nc2cc(Cl)cc(Cl)c2)C[C@](C)(O)/C=C/[C@H](C(C)C)CC/C(C)=C/CC1 was tested, and the IC50 [1] was 2.9 µM, the IC50 (MDA-MB-231) was 5.3 µM and the IC50 (MDA-MB-468) was 6.6 µM.

C/C1=C\[C@H](OC(=O)Nc2cccc(C(F)(F)F)c2)C[C@](C)(O)/C=C/[C@H](C(C)C)CC/C(C)=C/CC1 gave an IC50 [1] of 1.8 µM, an IC50 (MDA-MB-231) of 4.9 µM and an IC50 (MDA-MB-468) of 5.8 µM.

With C/C1=C\[C@H](O)C[C@](C)(O)/C=C/[C@H](C(C)C)CC/C(C)=C/CC1 the inhibition [2] was “Dose-dependent effect” and the IC50 [1] was 22.6 µM.

From ChEMBL document CHEMBL4715771 (Bioorg Med Chem, 2016)
